Test results from US11293015B2, “Diels-Alderase and use thereof” (Peking University, priority 2020, dated 2022).

B1: MaDA: Diels-Alderase identified from Morus alba, amino acid sequence SEQ ID No.1 (protein)
chain: MQYFSFPSSLAKITIFLIFSFVFASSANDTHEAFLECLTTRIPSNSTFTPQSIIYTPDNPSYSTILDSTTQNPRFLSSSTRNPFAIITPLHASHIQAALYCSQKHGEQMRIRSGGHDYEGLSYQSSVPFFILDLRNLSSISIDAKSKSAWVQAGATIGELYYGIAKTSLNLSFPGGVAHTIGVGGQLGGGGYGYSTRKYGLASDNVIDAQLIDARGRILDRKTMGEDLFWAIRGGGAGSFGIVLAWKIRLVNTPSTVTIFEAVRSWENNTTKKFIRRYQRRASKTDKDLTIFVGFRTTSSTDEEGNERISILTIVSATFHGSKDRLLQLVQKEFPDLGLVSEECTEMSWVRSIIHFNLFGDEVPLEVLLNRTLNFEMKAFKLRSDYVQKPIPDDVLEKLLSKLYDEETGEGYIEFFPYGGKMSKISESEIPFPYRAGNLYNLRYMVSWKDDGNITRTNMHLSWIKDAYDYMTPYVSKDPRGAYLNFRDLDIGVNVNESDYDYVAKASVWGTKYFRNNFYRLVDIKTIVDPTNFFKYEQSIPPLPPLHSAM

Columns and labels:
MaDA [1] = assay: Enzymatic activity test, MaDA run alongside MaDA-1; format: biochemical, Morus alba; conditions: Diene 3 100 μM, Dienophile 1 100 μM, SUMO-MaDA 27 nM, pH 8.0, 50° C., 10 min
Experimental: (§1) The activity of MaDA-1 was tested as follows: to a 97 μL reaction buffer (20 mm Tris-HCl, pH=8.0), 1 μL of Diene 3 (final concentration of 100 μM) and 1 […] (final concentration of 100 μM) were added, and then 1 μL of SUMO-MaDA protein (final concentration 27 nM) or SUMO-MaDA-1 (final concentration 27 nM) was added. The reaction mixture was reacted at 50° C. for 10 min, then quenched by adding 200 μL methanol, and centrifuged at 13,000 rpm for 30 min. The supernatant was analyzed by HPLC. In the control group as blank control, no protein was added.

MaDA [2] = assay: Conversion of dienophile substrates in the enzymatic D-A reaction; format: biochemical, Morus alba
Experimental: In the present Example, the conversion of Dienophiles 1 and 5-9 under enzymatic D-A reaction conditions were also determined. The reaction conditions were as follows:
To 96 μL reaction buffer (20 mM Tris-HCl, pH 8.0) was added 2 μL Diene 3 (final concentration, 200 μM) and 1 μL different chalcones or their derivatives (i.e., Dienophiles 1 and 5-9, final concentration, 100 μM). Then 1 μL MaDA or SUMO-MaDA (final concentration, 540 nM) was added. The resulting mixture was reacted at 50° C. for 5 min. The reactions were terminated by the addition of 200 μl of methanol. The reaction liquid were analyzed using the HPLC analysis condition mentioned above. After three repeated experiments, the conversion of Dienophiles 1, 7, 8, 9, 5 and 6 are determined as 74%, 55%, 13%, 78%, 0%, 71% respectively, as shown in FIG. 12.

MaDA-1 = assay: Enzymatic activity test for MaDA-1; format: biochemical, Morus alba; conditions: Diene 3 100 μM, Dienophile 1 100 μM, SUMO-MaDA-1 27 nM, pH 8.0, 50° C., 10 min
Experimental: as §1

MaDA-2 = assay: Activity test of MaDA-2; format: biochemical, Morus alba; conditions: dienophile 100 μM, Diene 3, 22, 23 or 24 100 μM, SUMO-MaDA-2 54 nM, pH 8.0, 50° C., 5 min
MaDA-2, sequence (as listed by the source): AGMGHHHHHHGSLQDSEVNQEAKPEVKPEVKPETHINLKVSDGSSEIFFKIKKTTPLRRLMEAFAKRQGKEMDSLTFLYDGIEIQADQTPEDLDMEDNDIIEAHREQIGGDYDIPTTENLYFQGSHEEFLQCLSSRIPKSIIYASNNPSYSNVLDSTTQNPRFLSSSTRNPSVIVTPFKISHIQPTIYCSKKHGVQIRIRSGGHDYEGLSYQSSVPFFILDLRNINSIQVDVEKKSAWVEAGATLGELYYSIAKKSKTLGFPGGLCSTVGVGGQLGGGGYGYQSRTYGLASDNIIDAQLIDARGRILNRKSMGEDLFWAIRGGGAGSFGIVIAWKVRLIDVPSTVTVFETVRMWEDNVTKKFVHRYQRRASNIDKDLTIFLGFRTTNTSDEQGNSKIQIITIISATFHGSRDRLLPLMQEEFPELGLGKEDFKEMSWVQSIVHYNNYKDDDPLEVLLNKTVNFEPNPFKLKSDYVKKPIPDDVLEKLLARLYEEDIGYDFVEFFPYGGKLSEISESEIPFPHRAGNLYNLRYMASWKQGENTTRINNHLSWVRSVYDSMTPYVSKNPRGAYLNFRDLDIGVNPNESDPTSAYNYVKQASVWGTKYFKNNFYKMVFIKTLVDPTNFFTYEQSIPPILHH
Experimental: Under the catalyzation of MaDA-2, the reaction activity between Dienophile 1 and different dienes 3, 22, 23 and 24 was measured following the protocol as follows: to a […] reaction buffer (20 mm Tris-HCl, pH=8.0), 1 μL of Dienophile 1 (final concentration of 100 μM) and 1 μL Diene 3, 22, 23 or 24 (final concentration of 100 μM) were added, and then 1 μL of SUMO-MaDA-2 (final concentration 54 nM) was added. The reaction mixture was reacted at 50° C. for 5 min, then quenched by adding 200 μL methanol. The reaction solution was analyzed by HPLC under the analysis conditions mentioned above, and the results were shown in FIG. 20. […] However, unlike MaDA, MaDA-2 can recognize Dienophile 5 to generate corresponding natural products or their analogs.

[3] = Optimum temperature and pH of MaDA; format: biochemical; conditions: Diene 3 0.1 mM, Dienophile 1 0.1 mM, 0.02 μg MaDA, 5 min, buffers pH 4.0-11.0
Experimental: The effects of different reaction temperatures (25, 30, 35, 40, 45, 50, 55, 60, and 70° C.) on [4+2] cyclization catalyzed by MaDA were investigated using Diene 3 and Dienophile 1 as substrates. The reaction system was as follows: the reaction mixture (100 μL) containing Diene 3 (0.1 mM) and Dienophile 1 (0.1 mM), and 0.02 μg MaDA was reacted for 5 min in Tris HCl buffer at pH 7.5 (the buffer solution was balanced at different temperatures for 15 min in advance). After the reaction, 200 μL ice-cold methanol was added to terminate the reaction, and vortex mixing was carried out. The resulting mixture was centrifuged at 15,000 g for 30 min. The supernatant was analyzed by HPLC. […] The conversion of the substrate was calculated by substituting the peak area of the product into the standard curve to calculate the reduction of the substrate.
The effects of buffer at different pH (pH 4.0-6.0, citric acid-sodium citrate buffer; 6.0-7.0, disodium hydrogen phosphate-sodium dihydrogen phosphate buffer; 7.0-9.0, Tris HCl buffer; 9.0-11.0, sodium carbonate-sodium bicarbonate buffer) on the [4+2] cyclization reaction of MaDA was investigated using Diene 3 and Dienophile 1 as substrates. […] The supernatant was analyzed by HPLC. […] The conversion of the substrate was calculated by substituting the peak area of the product into the standard curve to calculate the reduction of substrate.

Row | Molecule | consumption of substrate with MaDA, chalcomoracin (4) produced (MaDA [1]) | conversion of dienophile (MaDA [2]; Diene 3 200 μM, dienophile 100 μM, MaDA or SUMO-MaDA 540 nM, pH 8.0, 50° C., 5 min, three repeated experiments) [%] | effective recognition of dienophile by MaDA protein (MaDA [2]; same condition as the conversion test (540 nM enzyme, 50° C., 5 min)) | consumption of substrate with MaDA-1, chalcomoracin (4) produced (MaDA-1) | MaDA-2 catalysed reaction between dienophile and different dienes (MaDA-2) | optimum pH [3]
1 | morachalcone A [Dienophile 1] | almost completely consumed | 74 | effectively recognize | almost completely consumed | can also catalyze the reaction | –
2 | C=C(C)/C=C/c1c(O)cc(-c2cc3ccc(O)cc3o2)cc1O [Diene 3] | almost completely consumed | – | – | almost completely consumed | – | –
3 | B1 | – | – | – | – | – | 8.0
